Test results from patent US20090036448A1, “PYRIMIDINE DERIVATIVES AND METHODS OF TREATMENT RELATED TO THE USE THEREOF” (TAISHO PHARMECUTICAL CO., LTD., priority 2004, published 2009).

target: MCH receptor (Homo sapiens, UniProt Q99705); experiment: Receptor binding assay with Radiolabelled MCH Ligand; set-up: expressed in transfected cells; host or cells: 293 cells (human kidney, ATCC), transient transfection; crude membranes; settings: class by percent of control at 10^-7 M or IC50
Outline: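 This was a filtration radioligand displacement assay: compounds, first tested at 1 and 0.1 μM and then over a range, inhibited binding of a labelled MCH ligand to transfected 293-cell membranes at room temperature for 60–120 min. Specific binding excluded a cold-MCH nonspecific signal. Ki was derived from IC50 via Cheng-Prusoff, using an independently measured KD.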

Sequence of MCH receptor (Q99705 whole entry): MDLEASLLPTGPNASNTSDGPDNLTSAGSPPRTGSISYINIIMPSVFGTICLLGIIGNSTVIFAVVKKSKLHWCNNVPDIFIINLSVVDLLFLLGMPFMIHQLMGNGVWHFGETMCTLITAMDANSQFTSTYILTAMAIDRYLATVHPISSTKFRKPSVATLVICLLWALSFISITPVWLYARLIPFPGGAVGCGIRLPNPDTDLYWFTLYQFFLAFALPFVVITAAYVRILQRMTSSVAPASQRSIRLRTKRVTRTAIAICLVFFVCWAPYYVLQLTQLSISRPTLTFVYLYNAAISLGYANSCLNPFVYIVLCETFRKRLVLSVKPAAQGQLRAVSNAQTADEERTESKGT

SMILES	class
Cc1ccc(S(=O)(=O)NCC(=O)N[C@H]2CC[C@@H](Nc3cc(N(C)C)nc(C)n3)CC2)cc1 [compound 317]	3 (Class 3: The value of percent of control at 10^−7 M was more than 60% or the value of IC50 was more than 200 nM.)
Cc1nc(N[C@H]2CC[C@@H](NC(=O)Cc3c[nH]c4ccc(OCc5ccccc5)cc34)CC2)cc(N(C)C)n1 [compound 318]	3 (Class 3: The value of percent of control at 10^−7 M was more than 60% or the value of IC50 was more than 200 nM.)
Cc1cccc(NC(=O)c2ccccc2C(=O)N[C@H]2CC[C@@H](Nc3cc(N(C)C)nc(C)n3)CC2)c1 [compound 319]	3 (Class 3: The value of percent of control at 10^−7 M was more than 60% or the value of IC50 was more than 200 nM.)
Cc1nc(N[C@H]2CC[C@@H](NC(=O)c3cccc4c(=O)c(C)c(-c5ccccc5)oc34)CC2)cc(N(C)C)n1 [compound 320]	3 (Class 3: The value of percent of control at 10^−7 M was more than 60% or the value of IC50 was more than 200 nM.)
Cc1nc(N[C@H]2CC[C@@H](NC(=O)c3ccccc3C(=O)c3cc(C(F)(F)F)cc(C(F)(F)F)c3)CC2)cc(N(C)C)n1 [compound 322]	3 (Class 3: The value of percent of control at 10^−7 M was more than 60% or the value of IC50 was more than 200 nM.)
Cc1nc(N[C@H]2CC[C@@H](NC(=O)c3ccccc3C(=O)c3sc4ccccc4c3C)CC2)cc(N(C)C)n1 [compound 323]	3 (Class 3: The value of percent of control at 10^−7 M was more than 60% or the value of IC50 was more than 200 nM.)
Cc1nc(N[C@H]2CC[C@@H](NC(=O)c3ccc4c(c3)C(=O)c3ccccc3-4)CC2)cc(N(C)C)n1 [compound 324]	3 (Class 3: The value of percent of control at 10^−7 M was more than 60% or the value of IC50 was more than 200 nM.)
Cc1nc(N[C@H]2CC[C@@H](NC(=O)c3ccccc3-c3ccccc3)CC2)cc(N(C)C)n1 [compound 325]	3 (Class 3: The value of percent of control at 10^−7 M was more than 60% or the value of IC50 was more than 200 nM.)
Cc1nc(N[C@H]2CC[C@@H](NC(=O)c3ccc(Oc4ccccc4)cc3)CC2)cc(N(C)C)n1 [compound 326]	3 (Class 3: The value of percent of control at 10^−7 M was more than 60% or the value of IC50 was more than 200 nM.)
Cc1nc(N[C@H]2CC[C@@H](NC(=O)C3c4ccccc4Oc4ccccc43)CC2)cc(N(C)C)n1 [compound 327, N-(cis-4-{[6-(dimethylamino)-2-methylpyrimidin-4-yl]amino}cyclohexyl)-9H-xanthene-9-carboxamide]	3 (Class 3: The value of percent of control at 10^−7 M was more than 60% or the value of IC50 was more than 200 nM.)
Cc1nc(N[C@H]2CC[C@@H](NC(=O)c3ccccc3C(=O)N[C@@H](C)c3ccccc3)CC2)cc(N(C)C)n1 [compound 328]	3 (Class 3: The value of percent of control at 10^−7 M was more than 60% or the value of IC50 was more than 200 nM.)
Cc1nc(N[C@H]2CC[C@@H](NC(=O)c3ccc(OCc4ccccc4)cc3)CC2)cc(N(C)C)n1 [compound 329]	3 (Class 3: The value of percent of control at 10^−7 M was more than 60% or the value of IC50 was more than 200 nM.)
Cc1ccc(C(=O)c2ccccc2C(=O)N[C@H]2CC[C@@H](Nc3cc(N(C)C)nc(C)n3)CC2)cc1 [compound 330]	3 (Class 3: The value of percent of control at 10^−7 M was more than 60% or the value of IC50 was more than 200 nM.)
Cc1nc(N[C@H]2CC[C@@H](NC(=O)c3ccccc3COc3ccccc3)CC2)cc(N(C)C)n1 [compound 331, N-(cis-4-{[6-(dimethylamino)-2-methylpyrimidin-4-yl]amino}cyclohexyl)-[(2-phenyloxy)methyl]benzamide]	3 (Class 3: The value of percent of control at 10^−7 M was more than 60% or the value of IC50 was more than 200 nM.)
Cc1nc(N[C@H]2CC[C@@H](NC(=O)c3ccccc3C(=O)Nc3cccc4ccccc34)CC2)cc(N(C)C)n1 [compound 332]	3 (Class 3: The value of percent of control at 10^−7 M was more than 60% or the value of IC50 was more than 200 nM.)
Cc1nc(N[C@H]2CC[C@@H](NC(=O)c3ccc4cc5ccccc5cc4c3)CC2)cc(N(C)C)n1 [compound 333]	3 (Class 3: The value of percent of control at 10^−7 M was more than 60% or the value of IC50 was more than 200 nM.)
CCCCCCCc1ccc(-c2ccc(C(=O)N[C@H]3CC[C@@H](Nc4cc(N(C)C)nc(C)n4)CC3)cc2)cc1 [compound 334]	3 (Class 3: The value of percent of control at 10^−7 M was more than 60% or the value of IC50 was more than 200 nM.)
Cc1nc(N[C@H]2CC[C@@H](NC(=O)Cc3sc(-c4ccccc4)nc3-c3ccc(Cl)cc3)CC2)cc(N(C)C)n1 [compound 335]	3 (Class 3: The value of percent of control at 10^−7 M was more than 60% or the value of IC50 was more than 200 nM.)
Cc1nc(N[C@H]2CC[C@@H](NC(=O)CSCc3ccccc3)CC2)cc(N(C)C)n1 [compound 336]	3 (Class 3: The value of percent of control at 10^−7 M was more than 60% or the value of IC50 was more than 200 nM.)
Cc1nc(N[C@H]2CC[C@@H](NC(=O)CCCc3ccccc3)CC2)cc(N(C)C)n1 [compound 337]	3 (Class 3: The value of percent of control at 10^−7 M was more than 60% or the value of IC50 was more than 200 nM.)

SMILES	class
Cc1nc(N[C@H]2CC[C@@H](NC(=O)Cc3csc4ccccc34)CC2)cc(N(C)C)n1 [compound 338]	3 (Class 3: The value of percent of control at 10^−7 M was more than 60% or the value of IC50 was more than 200 nM.)
Cc1nc(N[C@H]2CC[C@@H](NC(=O)CC3Cc4ccccc4C3)CC2)cc(N(C)C)n1 [compound 339]	3 (Class 3: The value of percent of control at 10^−7 M was more than 60% or the value of IC50 was more than 200 nM.)
COc1ccc(CCCC(=O)N[C@H]2CC[C@@H](Nc3cc(N(C)C)nc(C)n3)CC2)cc1OC [compound 340]	3 (Class 3: The value of percent of control at 10^−7 M was more than 60% or the value of IC50 was more than 200 nM.)
Cc1nc(N[C@H]2CC[C@@H](NC(=O)CCCc3ccc4c(c3)OCCO4)CC2)cc(N(C)C)n1 [compound 341]	3 (Class 3: The value of percent of control at 10^−7 M was more than 60% or the value of IC50 was more than 200 nM.)
Cc1ccc(S(=O)(=O)n2ccc(C(=O)N[C@H]3CC[C@@H](Nc4cc(N(C)C)nc(C)n4)CC3)c2)cc1 [compound 342]	3 (Class 3: The value of percent of control at 10^−7 M was more than 60% or the value of IC50 was more than 200 nM.)
Cc1nc(N[C@H]2CC[C@@H](NC(=O)c3ccc(S(C)(=O)=O)cc3)CC2)cc(N(C)C)n1 [compound 343]	3 (Class 3: The value of percent of control at 10^−7 M was more than 60% or the value of IC50 was more than 200 nM.)
CC(=O)c1ccc(C(=O)N[C@H]2CC[C@@H](Nc3cc(N(C)C)nc(C)n3)CC2)s1 [compound 344]	3 (Class 3: The value of percent of control at 10^−7 M was more than 60% or the value of IC50 was more than 200 nM.)
CSc1sc(C(=O)N[C@H]2CC[C@@H](Nc3cc(N(C)C)nc(C)n3)CC2)c(Cl)c1S(=O)(=O)C(C)C [compound 345]	3 (Class 3: The value of percent of control at 10^−7 M was more than 60% or the value of IC50 was more than 200 nM.)
Cc1nc(N[C@H]2CC[C@@H](NC(=O)c3ccc(S(C)(=O)=O)s3)CC2)cc(N(C)C)n1 [compound 346]	3 (Class 3: The value of percent of control at 10^−7 M was more than 60% or the value of IC50 was more than 200 nM.)
Cc1nc(N[C@H]2CC[C@@H](NC(=O)c3ccc(-c4cnco4)cc3)CC2)cc(N(C)C)n1 [compound 347]	3 (Class 3: The value of percent of control at 10^−7 M was more than 60% or the value of IC50 was more than 200 nM.)
Cc1nc(N[C@H]2CC[C@@H](NC(=O)c3cn(S(=O)(=O)c4ccccc4)c4ccccc34)CC2)cc(N(C)C)n1 [compound 348]	3 (Class 3: The value of percent of control at 10^−7 M was more than 60% or the value of IC50 was more than 200 nM.)
Cc1nc(N[C@H]2CC[C@@H](NC(=O)C(=O)c3ccccc3)CC2)cc(N(C)C)n1 [compound 349]	3 (Class 3: The value of percent of control at 10^−7 M was more than 60% or the value of IC50 was more than 200 nM.)
Cc1cc(C)c(C(=O)C(=O)N[C@H]2CC[C@@H](Nc3cc(N(C)C)nc(C)n3)CC2)c(C)c1 [compound 350]	3 (Class 3: The value of percent of control at 10^−7 M was more than 60% or the value of IC50 was more than 200 nM.)
Cc1nc(N[C@H]2CC[C@@H](NC(=O)C3C[C@@H](c4ccccc4)CC[C@H]3C(=O)c3ccccc3)CC2)cc(N(C)C)n1 (stereo partly drawn) [compound 351]	3 (Class 3: The value of percent of control at 10^−7 M was more than 60% or the value of IC50 was more than 200 nM.)
Cc1nc(N[C@H]2CC[C@@H](NC(=O)C=C3c4ccccc4-c4ccccc43)CC2)cc(N(C)C)n1 [compound 352]	3 (Class 3: The value of percent of control at 10^−7 M was more than 60% or the value of IC50 was more than 200 nM.)
Cc1nc(N[C@H]2CC[C@@H](NCc3ccc4c(c3)C(=O)c3ccccc3C4=O)CC2)cc(N(C)C)n1 [compound 353]	3 (Class 3: The value of percent of control at 10^−7 M was more than 60% or the value of IC50 was more than 200 nM.)
Cc1nc(N[C@H]2CC[C@@H](NCc3ccccc3)CC2)cc(N(C)C)n1 [compound 354]	3 (Class 3: The value of percent of control at 10^−7 M was more than 60% or the value of IC50 was more than 200 nM.)
Cc1nc(N[C@H]2CC[C@@H](NCc3ccc(-c4ccccc4)cc3)CC2)cc(N(C)C)n1 [compound 355]	3 (Class 3: The value of percent of control at 10^−7 M was more than 60% or the value of IC50 was more than 200 nM.)
Cc1nc(N[C@H]2CC[C@@H](NCc3ccc(C(C)(C)C)cc3)CC2)cc(N(C)C)n1 [compound 356]	3 (Class 3: The value of percent of control at 10^−7 M was more than 60% or the value of IC50 was more than 200 nM.)
